# Experimental data reported in patent US20100234417A1, “THYROTROPIN RELEASING HORMONE RECEPTOR-OREXIN RECEPTOR HETERO-DIMERS/-OLIGOMERS” (DIMERIX BIOSCIENCE PTY LTD., priority 2006, published 2010).
# Ends that are not written are not given here.
# Tests used:
# [1] = target: T1, thyrotropin releasing hormone receptor (TRHR) (Rattus norvegicus, UniProt Q01717); assay: eBRET/BRET beta-arrestin recruitment to TRHR/Rluc without IG3 (pcDNA3) in HEK293 cells; type: cell-based
# T1 construct: expressed in transfected cells; host or cells: HEK293 (HEK293FT)
# T1 sequence (Q01717 1-412): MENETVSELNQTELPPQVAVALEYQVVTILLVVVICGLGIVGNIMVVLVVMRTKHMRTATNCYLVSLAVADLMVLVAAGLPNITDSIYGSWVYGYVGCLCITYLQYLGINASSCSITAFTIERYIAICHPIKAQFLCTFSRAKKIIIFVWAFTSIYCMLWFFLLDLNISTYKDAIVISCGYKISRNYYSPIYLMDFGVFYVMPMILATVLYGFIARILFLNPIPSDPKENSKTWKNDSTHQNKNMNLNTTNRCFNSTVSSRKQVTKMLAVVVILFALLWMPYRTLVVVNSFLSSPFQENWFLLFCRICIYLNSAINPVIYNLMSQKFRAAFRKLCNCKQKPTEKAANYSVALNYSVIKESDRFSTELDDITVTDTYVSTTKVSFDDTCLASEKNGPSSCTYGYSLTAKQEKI
# Source text: Briefly, referring to FIGS. 1 to 3, the IGs are provided in the form of the two receptors (TRHR and OxR). One of the two is attached to an RC (IG1-RC1, IG3). A second IG (IG2-RC2) is derived from a molecule that interacts with the receptors upon ligand binding (e.g. beta-arrestin, or a mutant thereof). The detection system not only detects the formation of the TRHR-OxR heterodimer but can distinguish whether a ligand or drug acts as an agonist, partial agonist, antagonist, inverse agonist or partial inverse agonist at the receptor hetero-dimer.
# Cells were seeded in 6-well plates at a density of approximately 630,000 cells/well (HEK293FT) or approximately 150,000 cells/well (COS-7) and maintained at 37° C., 5% CO2 in Complete Media (DMEM containing 0.3 mg/ml glutamine, 100 IU/ml penicillin and 100 μg/ml streptomycin (Gibco)) supplemented with 10% fetal calf serum (FCS; Gibco). Transient transfections were carried out 24 h after seeding using GeneJuice (Novagen) or Metafectene (Biontex) according to manufacturer instructions. 24 h post-transfection, cells were washed with PBS, detached using 0.05% trypsin/0.53 mM EDTA, resuspended in HEPES-buffered phenol red free Complete Media containing 5% FCS and added to a poly-L-lysine-coated white microplate (Nunc). 48 h post-transfection, eBRET assays were carried out following pre-incubation of cells with EnduRen™ (Promega) at a final concentration of 30-40 μM, at 37° C., 5% CO2 for 2 h. For original BRET studies, the HEPES-buffered phenol red free Complete Media was replaced with PBS and coelenterazine h (Molecular Probes) added to a final concentration of 5 μM immediately prior to commencing the assay. BRET measurements were taken at 37° C. using the Victor Light plate reader with Wallac 1420 software (Perkin-Elmer). Filtered light emissions were sequentially measured for 3-5 s in each of the ‘donor wavelength window’ (400-475 nm) and ‘acceptor wavelength window’ (>500 nm for EGFP or 520-540 nm for EYFP, Topaz (TYFP) or Venus). The BRET signal observed between interacting proteins is normalized by subtracting the background BRET ratio. This can be done in one of two ways (see Pfleger et al. (2006) Cell Signal 18, 1664-1670; Pfleger et al. (2006) Nat Protoc 1, 336-344): 1) the ratio of light emission through the acceptor wavelength window over the 400-475 nm emission for a cell sample containing only the donor construct is subtracted from the same ratio for a sample containing the interacting acceptor and donor fusion proteins; 2) the ratio of light emission through the ‘acceptor wavelength window’ over the 400-475 nm emission for a cell sample treated with vehicle is subtracted from the same ratio for a second aliquot of the same cell sample treated with ligand. In the following examples, the first calculation will be used, unless the signal is described as the ‘ligand-induced BRET ratio’. Alternatively, and particularly when illustrating z-factor data (Zhang et al. (1999) J Biomol Screen 4, 67-73), the BRET signal observed between interacting proteins can be shown in conjunction with (as oppose to being subtracted by) the background BRET ratio to evaluate error associated with the BRET signal observed between interacting proteins and the error associated with the background BRET ratio independently. In this case, data are shown as ‘fluorescence/luminescence’ being the ratio of light emission through the ‘acceptor wavelength window’ over the 400-475 nm emission for a particular cell sample. Unless otherwise stated, BRET signals were measured in 96-well microplates.
# Referring now to FIG. 4, eBRET signals were measured from cells transiently co-expressing TRHR/Rluc and barr2/Venus with either pcDNA3, OxR2, CXCR2, HA-MC3R, HA-MC4R, D2LR or D2SR following the treatment of each with their respective ligands.
# Referring now to FIG. 5, eBRET signals were measured from cells transiently co-expressing TRHR/Rluc and EGFP/barr1 or EGFP/barr2 with either pcDNA3 or OXR2. […]
# TRHR335 with OxR2 = assay: eBRET/BRET: truncated TRHR335/Rluc + tagged beta-arrestin + OxR2 as IG3; type: cell-based
# Description: Cells were seeded in 6-well plates at a density of approximately 630,000 cells/well (HEK293FT) or approximately 150,000 cells/well (COS-7) and maintained at 37° C., 5% CO2 in Complete Media (DMEM containing 0.3 mg/ml glutamine, 100 IU/ml penicillin and 100 μg/ml streptomycin (Gibco)) supplemented with 10% fetal calf serum (FCS; Gibco). Transient transfections were carried out 24 h after seeding using GeneJuice (Novagen) or Metafectene (Biontex) according to manufacturer instructions. 24 h post-transfection, cells were washed with PBS, detached using 0.05% trypsin/0.53 mM EDTA, resuspended in HEPES-buffered phenol red free Complete Media containing 5% FCS and added to a poly-L-lysine-coated white microplate (Nunc). 48 h post-transfection, eBRET assays were carried out following pre-incubation of cells with EnduRen™ (Promega) at a final concentration of 30-40 μM, at 37° C., 5% CO2 for 2 h. For original BRET studies, the HEPES-buffered phenol red free Complete Media was replaced with PBS and coelenterazine h (Molecular Probes) added to a final concentration of 5 μM immediately prior to commencing the assay. […] Filtered light emissions were sequentially measured for 3-5 s in each of the ‘donor wavelength window’ (400-475 nm) and ‘acceptor wavelength window’ (>500 nm for EGFP or 520-540 nm for EYFP, Topaz (TYFP) or Venus). The BRET signal observed between interacting proteins is normalized by subtracting the background BRET ratio. […] In the following examples, the first calculation will be used, unless the signal is described as the ‘ligand-induced BRET ratio’. […] In this case, data are shown as ‘fluorescence/luminescence’ being the ratio of light emission through the ‘acceptor wavelength window’ over the 400-475 nm emission for a particular cell sample. Unless otherwise stated, BRET signals were measured in 96-well microplates.
# Referring now to FIG. 9, eBRET signals were measured from cells transiently co-expressing TRHR335/Rluc and EGFP/barr1 with either OxR2 or TRHR.
# [2] = TRHR/Rluc only (no OxR2) + EGFP/barr1 or EGFP/barr2, FIG. 5
# [3] = TRHR335/Rluc + EGFP/barr1 + OxR2, FIG. 9
"eBRET signal peak ([1]; HEK293, TRHR/Rluc + barr2/Venus + pcDNA3, ligand 10^−6M, 37 C, FIG. 4)","time to eBRET signal peak ([1]; HEK293, TRHR/Rluc + barr2/Venus + pcDNA3, ligand 10^−6M, FIG. 4)","dose-response Hill slope ([1]; TRHR/Rluc + barr2/Venus + pcDNA3, FIG. 10)","eBRET signal [1, 2]","eBRET signal with EGFP/barr1R169E relative to EGFP/barr1 ([1]; TRHR/Rluc only (no OxR2), FIG. 8)","cumulative eBRET signal ([1]; TRHR/Rluc + EGFP/barr1, 0 μg OxR2 DNA/well, 10^−6M OxA, 83 mins, FIG. 16)","effect of OxA on TRH-induced eBRET signal [1, 2]",Compound,"eBRET signal ([1]; TRHR/Rluc only (no HA-OxR2), FIG. 7)","eBRET signal ([1]; TRHR/Rluc only (no OxR2) + EGFP/barr1 or EGFP/barr1R169E, FIG. 8)",eBRET signal (TRHR335 with OxR2; [3]),"BRET signal (dose response) (TRHR335 with OxR2; TRHR335/Rluc + barr2/Venus + OxR2, FIG. 15)","eBRET signal ([1]; OxA added to cells lacking HA-OxR2, FIG. 7)",time for eBRET signal to reach plateau (TRHR335 with OxR2; [3])
greater than 0.17,Within the first minute,approximately 1,rapid stimulation of the eBRET signal,lower than that for EGFP/barr1,–,–,"NC(=O)[C@@H]1CCCN1C(=O)[C@H](Cc1cnc[nH]1)NC(=O)[C@@H]1CCC(=O)N1 [TRH, pGlu-His-Pro-NH2]",rapid increase in eBRET signal reaching a peak in the first few minutes,rapid increase in eBRET signal reaching a peak in the first few minutes,no eBRET signal above baseline,does not result in a BRET signal,–,–
–,–,–,–,–,no signal was recorded,no difference,"OxA: orexin A; known orexin receptor modulator, used as IG3 ligand (modulator) (QPLPDCCRQKTCSCRLYELLHGAGNHAAGILTL; ends and bridges not checked; cysteine pairing not given here; UniProt O43612 34-66, looked up)",–,–,–,–,No increase in eBRET signal above baseline,about 20 minutes
